Data as given in patent publication US20210161894A1, “Compositions and Methods for Modulating Liver Endothelial Cell Fenestrations” (priority 2017, published 2021).

How the values were obtained:
[1] = test system: isolated LSECs (liver sinusoidal endothelial cells); assay: SEM of fenestrations in isolated LSECs from young and old mice after 30 min drug treatment (second Example 7); assay type: cell-based; conditions: for Diameter / Frequency / Porosity: 30 min
LSEC fenestrations = assay: SEM of LSEC fenestrations after drug treatments (Example 2, FIGS. 1-6); assay type: cell-based, mice
In short: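 Liver cells from young (3-4) and old (20-24 months) C57B16 mice, n=3 each, incubated 30 mins at 37° C, 5% CO2 in RPMI with or without drug; livers perfusion-fixed in 1% glutaraldehyde/4% para-formaldehyde. Blinded SEM at 10,000×; values are mean±SD of 8 images, 616-3312 fenestrations per treatment.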

fenestrations [2] = conditions: young (7 month) and old (24 month) mice; cited from earlier work
fenestrations [3] = conditions: young mice; cited from earlier work

COc1cc(CC(C)N)c(OC)cc1I (stereo not shown) [DOI, 2,5-Dimethoxy-4-iodoamphetamine]
Change in Frequency, Old ([1]; old mice, 0.1 μg/ml): ↑ (ns)
Diameter ([1]; old mice, 0.1 μg/ml): 135.27 ± 29.71 nm
Frequency ([1]; old mice, 0.1 μg/ml): 3.06 ± 1.00 no/area
Porosity ([1]; old mice, 0.1 μg/ml): 4.44 ± 1.07 %
Diameter ([1]; old mice, 1 μg/ml): 155.28 ± 15.33 nm
Frequency ([1]; old mice, 1 μg/ml): 0.67 ± 0.31 no/area
Porosity ([1]; old mice, 1 μg/ml): 1.31 ± 0.47%
effect on porosity and fenestration frequency (summary in words) ([1]; young and old LSECs): LSECs from old mice only were responsive
Diameter ([1]; young mice, 0.1 μg/ml): 133.57 ± 9.78 nm
Frequency ([1]; young mice, 0.1 μg/ml): 3.40 ± 1.56 no/area
Porosity ([1]; young mice, 0.1 μg/ml): 4.91 ± 2.02%
Diameter ([1]; young mice, 1 μg/ml): 135.64 ± 21.21 nm
Frequency ([1]; young mice, 1 μg/ml): 0.83 ± 0.75 no/area
Porosity ([1]; young mice, 1 μg/ml): 1.45 ± 1.27%
change in fenestration porosity (LSEC fenestrations; old mice, Cytochalasin D 0.5 μg/ml, DOI 0.1 μg/ml, 7KC 9 μM, Amlodipine 20 ng/ml): increased porosity
change in fenestration frequency (LSEC fenestrations; old mice, Cytochalasin D 0.5 μg/ml, DOI 0.1 μg/ml, 7KC 9 μM, Bosentan 0.1 μM, Sildenafil 300 ng/ml, Amlodipine 20 ng/ml): increased
sieve plates and fenestration density on SEM images (LSEC fenestrations; young and old mice): maintained sieve plates and increased fenestration density
fenestrations after in vivo administration (fenestrations [2]): increased fenestrations only in young (7 month) but not old (24 month) mice
fenestration porosity and diameter (previously reported) (fenestrations [3]): increase fenestration porosity in young mice without any significant effects on fenestration diameter
